Each structure is given as a SMILES string. Structures can show the parent of a compound that is named as a salt.

In the first experiment the test system is Plasmodium falciparum. Briefly: In vitro anti-malarial activity against Plasmodium falciparum, IC50 assay / [3H]-Hypoxanthine incorporation assay. In kind it is cell-based. As to conditions: Erythrocyte; Plasmodium falciparum strains in parasitized red blood cells, [3H]-hypoxanthine incorporation, 48 hours at 37°C. On the procedure:
The compounds of this invention may be tested in one of several biological assays to determine the concentration of compound which is required to have a given pharmacological effect. In vitro anti-malarial activity against Plasmodium falciparum. IC50 assay / [^3H]-Hypoxanthine assay
The culture medium comprised RPMI 1640 with 25mM HEPES, sodium bicarbonate and glutamine (GIBCO™ cat. ref.: 52400), supplemented with 10% of pooled human sera AB (Irvine Scientific, cat. ref.: 5009) and HT supplement (0.15 mM hypoxanthine and 24 µM thymidine), (GIBCO™ cat. ref.: 41065). Human sera were decomplemented 30 min. at 56°C, aliquoted and stored frozen at -20°C until use in this culture medium.
This culture medium ("complete medium") was usually prepared fresh just before use and pre-warmed to 37°C.
Red blood cells O+ stock suspensions were prepared from whole blood bags coming from incomplete blood donation, provided by the Spanish Red Cross (<25 days after sampling). This "whole blood" was aliquoted and stored at 4°C.
To prepare red blood cells for the assay, the whole blood was centrifuged and washed 3 times with RPMI without serum. The upper phase, containing white blood cells was removed. The washed red blood cells were kept as a 50 % suspension in complete medium. The prepared cells were stored at 4°C and were employed in the assay at any time up to 4 days after preparation.
Test compounds were dissolved at 2 mg/ml in 100% DMSO on the day of the assay. If necessary, complete dissolution was achieved by gentle heating (the mixture was heated at a temperature <37°C) and sonication (sonication bath).
For IC50 determinations, 10 serial 2-fold dilutions were prepared in complete medium in the presence of a constant amount of DMSO. Any obvious signs of insolubility of the stock solutions in 100% DMSO or precipitation when these solutions were diluted in assay media, were recorded.
Plasmodium falciparum strains were maintained in complete medium at an hematocrit of 5% in continuous culture using a method adapted from that published by Trager and Jensen(1) and Traeger(2).
The parasitemia was calculated by counting the percentage of parasitized erythrocytes by optical microscopy. Thin films of blood were made every day from each culture flask, fixed with methanol and stained for 10 min. in Giemsa (Merck, cat. ref.: 1.09204) at 10 % in buffered water pH 7.2. The glass slides were observed and counted with an optical microscope (Nikon, Eclipse E200) equipped with a 100 X immersion oil objective.
The culture was maintained at an hematocrit of 5%, with a daily change of medium and was diluted when parasitemia had reached about 5%.
[^3H] Hypoxanthine incorporation assay was conducted using a method adapted from Desjardins et al. (3). The assays were performed in 96 wells flat bottom microplates. • 1. Serial dilutions of the test compounds (50µl of a 5X solution / well) were deposited in duplicate. Compounds of the invention were tested in this assay. Chloroquine and Atovaquone were used as control compounds for each assay. • 2. […] [^3H]-Hypoxanthine (Amersham Biosciences, cat. ref.: TRK74) was added extemporaneously to the inoculum suspension at a concentration of 1 µCi/ml (equating to […]). 200 µl of the resulting suspension was distributed into each well (other than the control well H12 described below) leading to a final volume of 250 µl per well, at 2% of hematocrit and 0.5 % of parasitemia / well. • 4. […]
Regarding `Cc1[nH]c(C)c(-c2ccc(-c3ccc(CN4CCC(c5ccc(OC(F)(F)F)cc5)CC4)cc3)nc2)c(=O)c1Cl.Cl` [Example 64, 5-chloro-2,6-dimethyl-6'-{4-[(4-{4-[(trifluoromethyl)oxy]phenyl}-1-piperidinyl)methyl]phenyl}-3,3'-bipyridin-4(1H)-one hydrochloride], the IC50 – broadly, the concentration at which inhibition is half-maximal – is < 0.125 µg/mL.
The same measure, in the same setting: as for `Cc1[nH]c(CO)c(Cl)c(=O)c1-c1ccc(-c2ccc(CN3CCC(c4ccc(OC(F)(F)F)cc4)CC3)cc2)cc1.Cl` [Example 63, 3-chloro-2-(hydroxymethyl)-6-methyl-5-{4'-[(4-{4-[(trifluoromethyl)oxy]phenyl}-1-piperidinyl)methyl]-4-biphenylyl}-4(1H)-pyridinone hydrochloride], the figure is < 0.125 µg/mL; as for `Cc1[nH]c(C)c(-c2ccc(C3=CCN(Cc4ccc(OC(F)(F)F)cc4)CC3)cc2)c(=O)c1Cl.Cl` [Example 32, 3-Chloro-2,6-dimethyl-5-{4-[1-({4-[(trifluoromethyl)oxy]phenyl}methyl)-1,2,3,6-tetrahydro-4-pyridinyl]phenyl}-4(1H)-pyridinone hydrochloride], < 0.125 µg/mL.
In the case of `Cc1[nH]c(C)c(-c2ccc(C#CCN(C)CCc3ccc(OC(F)(F)F)cc3)cc2)c(=O)c1Cl.Cl` [Example 17, 3-Chloro-2,6-dimethyl-5-(4-{3-[methyl(2-{4-[(trifluoromethyl)oxy]phenyl}ethyl)amino]-1-propyn-1-yl}phenyl)-4(1H)-pyridinone hydrochloride], the IC50 was < 0.125 µg/mL.
The same measure, in the same setting: the result for `Cc1[nH]c(C)c(-c2ccc(C#CCCN(C)Cc3ccc(OC(F)(F)F)cc3)cc2)c(=O)c1Cl.Cl` [Example 18, 3-Chloro-2,6-dimethyl-5-(4-{4-[methyl({4-[(trifluoromethyl)oxy]phenyl}methyl)amino]-1-butyn-1-yl}phenyl)-4(1H)-pyridinone hydrochloride] reads < 0.125 µg/mL; that for `Cc1[nH]c(C)c(-c2ccc(C#CCN(C)Cc3ccc(C(F)(F)F)cc3C(F)(F)F)cc2)c(=O)c1Cl` [Example 4, 3-(4-{3-[{[2,4-Bis(trifluoromethyl)phenyl]methyl}(methyl)amino]-1-propyn-1-yl}phenyl)-5-chloro-2,6-dimethyl-4(1H)-pyridinone], < 0.125 µg/mL; that for `Cc1[nH]c(C)c(-c2ccc(C#CCN(C)Cc3ccc(F)cc3F)cc2)c(=O)c1Cl.Cl` [Example 40, 3-Chloro-5-(4-{3-[[(2,4-difluorophenyl)methyl](methyl)amino]-1-propyn-1-yl}phenyl)-2,6-dimethyl-4(1H)-pyridinone hydrochloride], < 0.125 µg/mL.
The same measure, in the same setting: as for `Cc1[nH]c(CO)c(-c2ccc(-c3ccc(CN4CCC(c5ccc(OC(F)(F)F)cc5)CC4)cc3)cc2)c(=O)c1Cl` [Example 61, 3-chloro-6-(hydroxymethyl)-2-methyl-5-{4'-[(4-{4-[(trifluoromethyl)oxy]phenyl}-1-piperidinyl)methyl]-4-biphenylyl}-4(1H)-pyridinone], the figure is < 0.125 µg/mL.
Consider `Cc1[nH]c(C)c(-c2ccc(-c3ccc(CN(C)Cc4ccc(OC(F)(F)F)cc4)cc3)cc2)c(=O)c1Cl.Cl` [Example 35, 3-Chloro-2,6-dimethyl-5-(4'-{[methyl({4-[(trifluoromethyl)oxy]phenyl}methyl)amino]methyl}-4-biphenylyl)-4(1H)-pyridinone hydrochloride], for which the IC50 was < 0.125 µg/mL.
On the same count and under the same terms, the result for `Cc1[nH]c(C)c(-c2ccc(C#CCN(C)Cc3ccc(Cl)cc3Cl)cc2)c(=O)c1Cl.Cl` [Example 46, 3-Chloro-5-(4-{3-[[(2,4-dichlorophenyl)methyl](methyl)amino]-1-propyn-1-yl}phenyl)-2 ,6-dimethyl-4(1H)-pyridinone hydrochloride] reads < 0.125 µg/mL.
The same measure, in the same setting: as for `CCCN(CC#Cc1ccc(-c2c(C)[nH]c(C)c(Cl)c2=O)cc1)Cc1ccc(OC(F)(F)F)cc1.Cl` [Example 21, 3-Chloro-2,6-dimethyl-5-(4-{3-[propyl({4-[(trifluoromethyl)oxy]phenyl}methyl)amino]-1-propyn-1-yl}phenyl)-4(1H)-pyridinone hydrochloride], the figure is < 0.125 µg/mL.
Still for that read-out and setting: the result for `Cc1[nH]c(C)c(-c2ccc(C#CCN(C)Cc3ccco3)cc2)c(=O)c1Cl.Cl` [Example 41, 3-Ch loro-5-(4-{3-[(2-furanylmethyl)(methyl)amino]-1-propyn-1-yl}phenyl)-2,6-dimethyl-4(1H)-pyridinone hydrochloride] reads < 0.125 µg/mL; that for `Cc1[nH]c(C)c(-c2ccc3sc(CN(C)Cc4ccc(OC(F)(F)F)cc4)cc3c2)c(=O)c1Cl.Cl` [Example 31, 3-Chloro-2,6-dimethyl-5-(2-{[methyl({4-[(trifluoromethyl)oxy]phenyl}methyl)amino]methyl}-1-benzothien-5-yl)-4(1H)-pyridinone hydrochloride], < 0.125 µg/mL; that for `Cc1[nH]c(C)c(-c2ccc(C#CCN3CCC(c4ccccc4)CC3)cc2)c(=O)c1Cl` [Example 10, 3-Chloro-2,6-dimethyl-5-{4-[3-(4-phenyl-1-piperidinyl)-1-propyn-1-yl]phenyl}-4(1H)-pyridinone], < 0.125 µg/mL.
`Cc1[nH]c(C)c(-c2ccc(C#CCN(C)CCC(F)(F)F)cc2)c(=O)c1Cl.Cl` [Example 49, 3-Chloro-2,6-dimethyl-5-(4-{3-[methyl(3,3,3-trifluoropropyl)amino]-1-propyn-1-yl}phenyl)-4(1H)-pyridinone hydrochloride]: the IC50 was < 0.125 µg/mL.
Still for that read-out and setting: the result for `Cc1[nH]c(C)c(-c2ccc(-c3ccc(CN(C)Cc4ccc(OC(F)(F)F)cc4)s3)cc2)c(=O)c1Cl.O=C(O)C(F)(F)F` [Example 26, 3-Chloro-2,6-dimethyl-5-[4-(5-{[methyl({4-[(trifluoromethyl)oxy]phenyl}methyl)amino]-methyl}-2-thienyl)phenyl] -4(1H)-pyridinone trifluoroacetate] reads < 0.125 µg/mL.
Same read-out and setting: the result for `Cc1[nH]c(C)c(-c2ccc(-c3ccc(CN4CCC(F)(F)C4)cc3)cc2)c(=O)c1Cl.Cl` [Example 60, 3-chloro-5-{4'-[(3,3-difluoro-1-pyrrolidinyl)methyl]-4-biphenylyl}-2,6-dimethyl-4(1H)-pyridinone hydrochloride] reads < 0.125 µg/mL; that for `Cc1[nH]c(C)c(-c2ccc(C#CCN(C)CCC(C)(C)C)cc2)c(=O)c1Cl.Cl` [Example 48, 3-Chloro-5-(4-{3-[(3,3-dimethylbutyl)(methyl)amino]-1-propyn-1-yl}phenyl)-2 ,6-dimethyl-4(1H)-pyridinone hydrochloride], < 0.125 µg/mL.
Same read-out and setting: the result for `Cc1[nH]c(C)c(-c2ccc(C#CCN(C)Cc3ccc(C(F)(F)F)cc3)cc2)c(=O)c1Cl` [Example 2, 3-Chloro-2,6-dimethyl-5-{4-[3-(methyl{[4-(trifluoromethyl)phenyl]methyl}amino)-1-propyn-1-yl]phenyl}-4(1H)-pyridinone] reads < 0.125 µg/mL.
In the case of `Cc1[nH]c(C)c(-c2ccc(C#CCN3CCc4cccc(C(F)(F)F)c4C3)cc2)c(=O)c1Cl.Cl` [Example 15, 3-Chloro-2,6-dimethyl-5-(4-{3-[8-(trifluoromethyl)-3,4-dihydro-2(1H)-isoquinolinyl]-1-propyn-1-yl}phenyl)-4(1H)-pyridinone hydrochloride], the IC50 is < 0.125 µg/mL.
Still for that read-out and setting: as for `Cc1[nH]c(C)c(-c2ccc(C#CCN(C)Cc3ccc(OC(F)(F)F)cc3)cc2)c(=O)c1Cl.Cl` [Example 19, 3-Chloro-2,6-dimethyl-5-(4-{3-[methyl({4-[(trifluoromethyl)oxy]phenyl}methyl)amino]-1-propyn-1-yl}phenyl)-4(1H)-pyridinone hydrochloride], the figure is < 0.125 µg/mL.

The experiment is the same for the next values; noted with them: Plasmodium falciparum, Erythrocyte.
For the molecule `Cc1[nH]c(C)c(-c2ccc(CCCN3CCC(c4ccc(OC(F)(F)F)cc4)CC3)cc2)c(=O)c1Cl` [Example 52, 3-Chloro-2,6-dimethyl-5-{4-[3-(4-{4-[(trifluoromethyl)oxy]phenyl}-1-piperidinyl)propyl]phenyl}-4(1H)-pvridinone hydrochloride], the IC50 is < 0.125 µg/mL.

Source of the values: patent EP2246329A1, “4(1H)-pyridinone derivatives and their use as antimalaria agents” (Glaxo Group Limited, priority 2009, dated 2010).
